# Reference: publication PMC5320394, “Development of a Novel Formulation That Improves Preclinical Bioavailability of Tenofovir Disoproxil Fumarate” (Journal of Pharmaceutical Sciences, 2017)
# Counter-ions that a name gives are not always drawn. Like-named read-outs stand apart in the source and are kept apart here.
# Assays:
# human intestinal S9 = test: TDF stability in human intestinal S9 fraction and effect of inhibitors; conditions: for inhibition of TDF hydrolysis: human S9
# Procedure: (§3) TDF solutions were prepared at 10 μM in rat or human intestinal S9 fraction (0.5 mg protein/mL). Inhibitors were added to the solutions. […] Control samples included buffer, human S9, or rat S9 solutions with only TDF. Samples were incubated at 37°C for 0, 5, 10, 15, 20, and 30 min and then analyzed by LC-MS/MS for TDF, TFV-ME, TFV, and PP (to quantify stability).
# (§4) Samples from S9 incubations were analyzed using the LC-MS/MS conditions described earlier for Caco-2 samples.
# [1] = tested on: porcine pancrelipase (PL); test: Hydrolysis of TDF by PL and effect of enzyme inhibitors; assay type: biochemical; conditions: for protection of TDF against PL hydrolysis: PP or MP together or alone, FaSSIF with PL; for half-life at 10 µM: pig, with none, Control, 10 μM TDF, PL, 37°C, no inhibitor, read-out: TDF t1/2
# Procedure: TDF solutions were prepared at 10 μM and incubated in triplicate at 37°C in FaSSIF containing PL at 480 U/mL with and without inhibitors. Inhibitors were added at 10% vol/vol for the oils (sesame, olive, safflower, soybean, and coconut); at 10 mM for PP, MP, and EM1; and at 0.05 mM/0.002 mM for EDTA/PMSF. Controls consisted of TDF in transport media or FaSSIF with and without PL. Samples were incubated at 37°C and quenched with acetonitrile at 10, 15, 20, and 30 min. For each time point, the % TDF or % TFV-ME remaining was determined by LC-MS/MS as described below.
# rat intestinal S9 = test: TDF stability in rat intestinal S9 fraction and effect of inhibitors; conditions: for inhibition of TDF hydrolysis: rat S9
# Procedure: as §3, §4
# in vivo = test: in vivo; design: species or system Sprague-Dawley rats; conditions: rat, given IV; for AUC: male, Sprague-Dawley, plasma, iv, AUC0-8h
# lymphocytes = tested on: lymphocytes; design: method as in PMID 9517941; conditions: cited from earlier work
# MDCK-MDR1 cells (P-gp) = test: MDCK-MDR1 efflux studies; assay type: in vitro ADME, canine; conditions: for Papp, A to B / Papp, B to A: (SEM)
# Procedure: (§1) MDCK-MDR1 cells (Netherlands Cancer Institute) were seeded at a density of 3 × 10^5 cells per well onto microporous polycarbonate membranes in 12-well Costar Transwell plates (Corning, Inc.). The cells were incubated for 3 days during which time they formed confluent monolayers. Monolayer integrity was checked using a Millicell-ERS instrument (Millipore) to determine the transepithelial electrical resistance (TEER) across the monolayer. […] […] Competency of the P-gp efflux transporter was confirmed by assay of propranolol (nonsubstrate) and amprenavir (substrate). Cell monolayers were incubated in triplicate with shaking (160 rpm) at 37°C for 2 h. Samples were removed from the apical and basolateral compartments after incubation and assayed for test compound concentrations by LC-MS/MS.
# (§2) Conditions were similar to those used for Caco-2 analyses. Differences included the use of a Phenomenex Synergi Hydro-RP column (4 μm, 2.1 × 50 mm) at 60°C, mobile phases of aqueous 0.2% formic acid (A) and neat methanol (B), and a rapid 0.9 min gradient from 0% to 95% B.
# [2] = tested on: porcine pancrelipase (PL); test: Stability in SGF and FaSSIF with and without PL; assay type: in vitro ADME; conditions: 37°C; for stability in SGF and FaSSIF: without PL, up to 120 min, TDF 10 μM
# Procedure: Samples were incubated at 37°C and quenched with acetonitrile at 0, 15, 30, 60, 90, and 120 min. For each time point, the % TDF or % TFV-ME remaining was determined by LC-MS/MS as described below.
# in vitro [3] = conditions: rat, intestinal S9 fraction
# Procedure: as §3, §4
# [4] = design: method as in PMID 9660984; conditions: oral administration of TDF; mice; cited from earlier work
# [5] = design: method as in ref 50 = [50]; 50 Center for Drug Evaluation and Research (2001) Clinical Pharmacology and Pharmaceutics Review Application Number 21-356, page 78 Available at: http://www.accessdata.fda.gov/drugsatfda_docs/nda/2001; conditions: rat, literature, normalized for dose; cited from earlier work
# P-gp [6] = test: MDCK-MDR1 efflux studies; assay type: in vitro ADME, canine; conditions: dog; for Papp B→A at 120 min, 5 µM: (SEM)
# Procedure: as §1, §2
# [7] = design: method as in ref 33 = [33]; 33 Arimilli M. Kim C. Bischofberger N. Dougherty J. Synthesis, in vitro biological evaluation and oral bioavailability of prodrugs of the antiretroviral agent 9-[2-(phosphonomethoxy)-propyl] adenine; conditions: cited from earlier work
# [8] = design: method as in PMID 11557462, PMID 15217303; conditions: humans, cited from earlier work
# [9] = pH stability of TDF in SGF and FaSSIF; assay type: physicochemical; conditions: 1 mM TDF
# Procedure: The pH of fasted state simulated intestinal fluid (FaSSIF)[27] was adjusted with 2M NaOH to pH of 6.8, 9, and 11. Simulated gastric fluid (SGF) was used as is at pH 1.2. TDF solutions (100 mM) were prepared in 99% dimethyl sulfoxide. TDF solutions (1 mM) were prepared by 100-fold dilution in FaSSIF and SGF. The pH of the final solution was not measured.
# The TDF stability study at pH 1.2 was measured at 37°C in triplicate at 0, 15, 30, 60, 90, and 120 min. The TDF stability studies at pH 6.8, 9, and 11 were measured at 37°C in triplicate at 0, 30, 60, 120, and 240 min. Samples (5 μL) were quenched by diluting 200-fold with 4°C 0.1% formic acid (35% MeOH). These samples were analyzed by liquid chromatography tandem mass spectrometry (LC-MS/MS).
# P-gp [10] = test: in vitro; assay type: in vitro ADME; conditions: human, Caco-2, pH 7, with none (CsA 0.00 µM)
# Procedure: (§5) Caco-2 monolayer experiments were performed as previously described[30] with a few modifications. […] Following incubation, the media was replaced to remove dead cells and prevent the formation of multiple layers of cells settling on the filter. Media was then changed every 2-3 days and plates were used in experiments after a total of 21 days from initial seeding. Monolayer integrity was checked before and after each experiment using a Millicell-ERS instrument to determine the TEER across the monolayer and to ensure that there was no substantial change in monolayer integrity throughout the duration of an experiment. On the day of the experiment, the TEER was assessed and the media in each plate was replaced with warm HBSS (pH 7) and allowed to equilibrate (37°C, 30 min). Apical (for apical-to-basolateral [A-to-B] transport) chambers were replaced with HBSS containing 10 μM (final concentration, n = 3 reps) aqueous solution of drug and inhibitors. Samples were taken from both apical and basolateral compartments at 120 min and diluted into an appropriate solvent to allow drug quantitation using LC-MS/MS.
# (§6) Samples from permeability assays were also diluted into Mobile Phase A prior to analysis.
# (§7) Mobile Phase A was 3/1/96 acetonitrile/acetic acid/water and Mobile Phase B was 96/1/3 acetonitrile/acetic acid/water. Rather than isocratic elution, a gradient program was used. The gradient program held at 0% B for 1 min, ramped to 98% B from 1 to 2 min, held at 98% B from 2 to 3 min, and then returned to initial conditions. Q1/Q3 ions for TFV-ME and TDF were 404.0/270.0 and 520.1/270.0, respectively.
# [11] = tested on: Caco-2 cell monolayers (P-gp); test: in vitro; assay type: in vitro ADME; conditions: Caco-2, 10 μM TDF, 120 min, no inhibitor (CsA 0.00 µM)
# Procedure: as §5, §6, §7
# [12] = cited from earlier work
# [13] = dog, in vivo; cited from earlier work
# in vitro [14] = conditions: human, intestinal S9 fraction
# Procedure: as §3, §4
# Caco-2 cell monolayers = assay type: in vitro ADME
# Procedure: as §5, §6, §7
# [15] = tested on: rat intestinal homogenates; design: method as in PMID 12124311; conditions: cited from earlier work
# [16] = human S9, 10 μM TDF, 37°C, 10 μM BNPP, 100 μM PMSF, 0.05% wt/vol EM1, 1 mM PP, 1 mM MP, 1 mM EP
# [17] = rat S9, 10 μM TDF, 37°C, 10 μM BNPP, 100 μM PMSF, 0.05% wt/vol EM1, 1 mM PP, 1 mM MP, 1 mM EP
# [18] = MDCK-MDR1, with none (0 µM GF918)
# [19] = Caco-2, versus no inhibitor, 1 mM BNPP, 1 mM PP, 0.05% wt/vol EM1, 0.5 mg/mL TPGS, 10 μM CsA, 2 μM GF918
# [20] = Caco-2 A to B, 10 μM, 120 min, 1 mM BNPP, 1 mM PP, 0.05% wt/vol EM1, 0.5 mg/mL TPGS, 10 μM CsA, 2 μM GF918
compound,measurement,setting,value
"COC(=O)c1ccc(O)cc1 [MP, methylparaben]",TDF Rate Constant with inhibitor,human intestinal S9; [16],-1.065 min⁻¹
same,inhibition of TDF hydrolysis,"human intestinal S9; 100 μM PMSF, 1 mM EP, 1 mM MP",did not show any substantial inhibition
same,protection of TDF against PL hydrolysis,[1],did not protect TDF
same,TDF Rate Constant with inhibitor,rat intestinal S9; [17],-1.297 min⁻¹
same,inhibition of TDF hydrolysis,"rat intestinal S9; 100 μM PMSF, 1 mM EP, 1 mM MP",did not show any substantial inhibition
"C[C@H](Cn1cnc2c(N)ncnc21)OCP(=O)(O)O [TFV, tenofovir]",AUC,"in vivo; read-out: TFV AUC, Mean",3210 ng·h/mL
same,AUC,"in vivo; read-out: TFV AUC, Median",3200 ng·h/mL
same,"TFV AUC, Median Fold Increase",in vivo; versus oral TDF Control,2.85 fold
same,intracellular half-life,lymphocytes; activated lymphocytes,720 to 900 min
same,intracellular half-life,lymphocytes; resting lymphocytes,1980 to 3000 min
"O=S(=O)(F)Cc1ccccc1 [PMSF, phenylmethylsulfonyl fluoride]",TDF Rate Constant with inhibitor,human intestinal S9; [16],-0.185 min⁻¹
same,inhibition of TDF hydrolysis,"human intestinal S9; 100 μM PMSF, 1 mM EP, 1 mM MP",did not show any substantial inhibition
same,TDF Rate Constant with inhibitor,rat intestinal S9; [17],-1.064 min⁻¹
same,inhibition of TDF hydrolysis,"rat intestinal S9; 100 μM PMSF, 1 mM EP, 1 mM MP",did not show any substantial inhibition
"CC(C)OC(=O)OCOP(=O)(O)CO[C@H](C)Cn1cnc2c(N)ncnc21 [TFV-ME, tenofovir monophosphonate ester]",Efflux ratio,"MDCK-MDR1 cells (P-gp); MDCK-MDR1, 0 μM GF918",2.1
same,"Papp, A to B","MDCK-MDR1 cells (P-gp); MDCK-MDR1, 0 μM GF918, 120 min",4.1 (0.20) nm/s
same,"Papp, B to A","MDCK-MDR1 cells (P-gp); MDCK-MDR1, 0 μM GF918, 120 min",8.8 (0.60) nm/s
same,Efflux ratio,"MDCK-MDR1 cells (P-gp); MDCK-MDR1, 2 μM GF918",0.9
same,"Papp, A to B","MDCK-MDR1 cells (P-gp); MDCK-MDR1, 2 μM GF918, 120 min",5.3 (0.61) nm/s
same,"Papp, B to A","MDCK-MDR1 cells (P-gp); MDCK-MDR1, 2 μM GF918, 120 min",5.0 (0.58) nm/s
same,half-life in FaSSIF with PL,"[2]; 10 μM, PL 480 U/mL",38.0 ± 2.0 min
same,stability in SGF and FaSSIF,[2],stable
"CCOC(=O)c1ccc(O)cc1 [EP, ethylparaben]",TDF Rate Constant with inhibitor,human intestinal S9; [16],-0.210 min⁻¹
same,inhibition of TDF hydrolysis,"human intestinal S9; 100 μM PMSF, 1 mM EP, 1 mM MP",did not show any substantial inhibition
same,TDF Rate Constant with inhibitor,rat intestinal S9; [17],-1.023 min⁻¹
same,inhibition of TDF hydrolysis,"rat intestinal S9; 100 μM PMSF, 1 mM EP, 1 mM MP",did not show any substantial inhibition
"CC(C)OC(=O)OCOP(=O)(CO[C@H](C)Cn1cnc2c(N)ncnc21)OCOC(=O)OC(C)C [TDF, Tenofovir disoproxil fumarate]",TDF Rate Constant,"human intestinal S9; human S9 0.5 mg protein/mL, 10 μM TDF, 37°C, Buffer (no inhibitor)",-1.123 min⁻¹
same,half-life at 10 µM,in vitro [3],0.58 ± 1.79 min
same,oral bioavailability of TFV,[4],20%
same,AUC,[5],1490 ng·h/mL
same,"Papp A→B at 120 min, 5 µM","P-gp [6]; MDCK-MDR1, with GF918 2 µM",2.25 ×10⁻⁶ cm/s
same,"efflux ratio at 2 h, 5 µM","P-gp [6]; MDCK-MDR1, with GF918 2 µM",1.5
same,"Papp B→A at 120 min, 5 µM","P-gp [6]; MDCK-MDR1, with GF918 2 µM, MDCK-MDR1, 2 μM GF918, 120 min",3.41 ×10⁻⁶ cm/s
same,"Papp A→B at 120 min, 5 µM",P-gp [6]; [18],0.67 ×10⁻⁶ cm/s
same,"efflux ratio at 2 h, 5 µM",P-gp [6]; [18],44.2
same,"Papp B→A at 120 min, 5 µM","P-gp [6]; MDCK-MDR1, with none (0 µM GF918), MDCK-MDR1, 0 μM GF918, 120 min",29.5 ×10⁻⁶ cm/s
same,"Papp, B to A","MDCK-MDR1 cells (P-gp); MDCK-MDR1, 0 μM GF918, 120 min",295.0 (6.1) nm/s
same,half-life,"[7]; pH 2.2, 37°C",> 150 h
same,half-life,"[7]; pH 7.4, 37°C",8 h
same,half-life at 10 µM,"[1]; porcine pancrelipase (PL) in FaSSIF, FaSSIF",6.35 min
same,half-life at 10 µM,"[1]; porcine pancrelipase (PL) in transport media, transport media",7.59 min
same,TDF Rate Constant,"rat intestinal S9; rat S9 0.5 mg protein/mL, 10 μM TDF, 37°C, Buffer (no inhibitor)",-1.200 min⁻¹
same,half-life at 10 µM,"[2]; pig, porcine pancrelipase (PL) in FaSSIF, 10 μM, PL 480 U/mL",2 ± 2.3 min
same,stability in SGF and FaSSIF,[2],stable
same,TDF oral bioavailability following a high fat meal,[8]; after high fat meal,39%
same,oral bioavailability of TFV,[8]; oral administration of TDF,under 30%
same,half-life at 1 mM,"[9]; FaSSIF pH 6.8, 37°C",16.6 ± 3.4 h
same,half-life at 1 mM,"[9]; FaSSIF pH 9, 37°C",2.9 ± 0.2 h
same,half-life at 1 mM,"[9]; FaSSIF pH 11, 37°C",0.0567 ± 0.102 h
same,half-life at 1 mM,"[9]; SGF pH 1.2, 37°C",> 55 h
same,"Papp A→B at 120 min, 10 µM","P-gp [10]; Caco-2, 10 μM TDF, 120 min, no inhibitor (CsA 0.00 µM)",0.7 ×10⁻⁶ cm/s
same,"efflux ratio at 120 min, 10 µM",P-gp [10]; read-out: TDF E.R. (efflux ratio),12
same,"Papp B→A at 120 min, 10 µM","P-gp [10]; read-out: TDF Papp, B to A",8.16 ×10⁻⁶ cm/s
same,"TDF Papp, A to B",[11],0.698 ×10⁻⁶ cm/s
same,pKa,[12],3.75
same,partition coefficient (log P),[12],1.25
same,Biopharmaceutics Classification System class,[12]; high solubility and low permeability,class 3
same,water solubility,[12]; room temperature,15.3 mg/mL
same,oral bioavailability of TFV,[13],30%
same,half-life at 10 µM,in vitro [14],0.62 ± 1.29 min
same,"% Measured Basolateral, TDF (median)","Caco-2 cell monolayers; Caco-2 A to B, 10 μM, 120 min, no esterase inhibitor, no P-gp inhibitor",0.78%
"CCCOC(=O)c1ccc(O)cc1 [PP, propylparaben]",TDF Rate Constant with inhibitor,human intestinal S9; [16],-0.035 min⁻¹
same,inhibition of TDF metabolism,[15],94.5%
same,protection of TDF against PL hydrolysis,[1],did not protect TDF
same,TDF Rate Constant with inhibitor,rat intestinal S9; [17],-0.196 min⁻¹
"O=[N+]([O-])c1ccc(OP(=O)(O)Oc2ccc([N+](=O)[O-])cc2)cc1 [BNPP, Bis-para-nitrophenylphosphate]",TDF Rate Constant with inhibitor,human intestinal S9,-0.009 min⁻¹
same,TDF Rate Constant with inhibitor,rat intestinal S9,-0.016 min⁻¹
same,"Fold Increase, TDF (A to B transport)",Caco-2 cell monolayers; [19],6.2 fold
same,"Fold Increase, TFV Family (A to B transport)",Caco-2 cell monolayers; [19],3.1 fold
same,"% Measured Basolateral, TDF (median), with inhibitor(s)",Caco-2 cell monolayers; [20],4.88%
same,"% Measured Basolateral, TNF (median), with inhibitor(s)",Caco-2 cell monolayers; [20],0.00%
same,"% Measured Basolateral, TNF-ME (median), with inhibitor(s)",Caco-2 cell monolayers; [20],0.55%
